# Experimental data published in patent publication US20180044672A1, “Pericyte Long Non-Coding RNAs” (Johann Wolfgang Goethe-Universität Frankfurt am Main, priority 2015, published 2018).
# Entries after “also recorded” stand apart in the source; their conditions may differ.
# Assays:
# [1] = PC viability by MTT assay; conditions: human
# human pericytes (PC) = test: PC viability by MTT assay
# TYKRIL = TYKRIL expression in human pericytes by qRT-PCR; format: cell-based; conditions: for TYKRIL expression levels in PC: LNA GapmeR 50 nmol/l, 48 h after transfection, vs scrambled control
# Protocol: (§1) Cells were grown to 60-80% confluency and were transfected for 4 hours in Optimem Medium using Lipfectamine (both from Life technologies, Carlsbad, Calif., USA) with 50 nmol/l LNA GapmeR (Exiqon, Vedbaek, Denmarkt) according to the manufacturer's instructions. Controls were transfected with scrambled LNA GapmeR control. Four hours after LNA Gapmer Transfection, Optimem Medium was exchanged with normal cell culture medium. All experimental manipulations were carried out 48 hours after transfection.
# (§2) Total RNA from PC was isolated using RNeasy Mini Kits (Qiagen, Hilden, Germany) as recommended by the manufacturer including a DNA digestion step. Nuclear and cytosolic fractions were prepared as documented elsewhere 34. 500-1000 ng RNA was reversely transcribed with random hexamer primers (ThermoScientific, Waltham, USA) by MulV reverse transcriptase (Lifetechnologies) in 40 μl reaction volume. Fast SYBR green or SYBR green (Applied Biosystems, Forster City, USA) and cDNA were used for qRT-PCR. A Viia7 or StepOnePlus from Applied Biosystems was used. CT values were normalized against ribosomal RPLP0. Relative gene expression levels were determined by the formula: 2-deltaCT; deltaCT=CTtarget−CTcontrol.
# PDGFRβ [2] = test: PDGFRβ expression in human pericytes by qPCR and immunoblotting; format: cell-based; conditions: for PDGFRβ mRNA (qPCR) / PDGFRβ protein levels (immunoblotting): upon TYKRIL silencing by LNA GapmeRs
# Protocol: as §1, §2
# Standard immunofluorescent staining procedures were carried out as described before 35-37. In brief, cells were washed with PBS, fixed in ice cold acetone for about 5 minutes. After washing cells were blocked for 2 hours at room temperature with 5% donkey serum (Dianova, Hambur, Germany), 0.3% Triton X-100 in PBS. Primary antibodies were incubated overnight in PBS containing 2% BSA, 0.1% Triton X-100. Secondary antibodies and Hoechst (Lifetechnologies, 1/1000) were incubated in 2% BSA, 0.1% azide for another 2 hours. For SDS Page protein isolation cells were washed once with ice-cold PBS, snap frozen in liquid nitrogen and RIPA-buffer (Thermo Scientific, Rockford, USA) supplemented with protease inhibitor (Roche Diagnostics) was applied. Cells were then scraped off with an ice cold rubber policeman and incubated for 45 minutes on ice under agitation. Subsequently probes were centrifuged for 10 minutes at 5000 RPM at 4° C. The supernatant was transferred into ice cold vials and protein concentration was determined by performing a Bradford assay with RotiQuant (Carl Roth, Karlsruhe, Germany) according to the manufacturer's instructions. Protein samples were mixed with an equal volume of 2× Laemmli buffer (Sigma Aldrich). Gels (Mini-Protean TGX, BioRad) were loaded with 20-30 μg protein per lane. SDS page was performed for 1 hour at 100V in […] (BioRad). Western Blotting was performed using a Pierce G2 Fast Blotter according to the manufacturer's instructions (ThermoScientific).
# human pericytes = test: RNA Seq upon TYKRIL knockdown in pericytes; format: cell-based; conditions: upon TYKRIL knockdown with LNA GapmeRs
# Protocol: RNA deep sequencing was performed by analyzing ribosomal depleted total RNA from human Pericytes. RNA was isolated using a RNeasy Mini Kit (Qiagen) according to the manufacturer's instructions including DNA digestion. Subsequently RNA was fragmented and primed for cDNA synthesis. Libraries were created using a TruSeq RNA Ribo-Zero Globin kit (from Illumina) as recommended by the manufacturer. A Illumina HiSeq 2000 flowcell was used for sequencing. lncRNA annotation was done based on the NONCODE database (noncode.org).
# mTYKRIL = test: Murine TYKRIL knockdown in vivo, mTYKRIL in organs; set-up: species or system mouse; conditions: mice, 20 mg/kg intraperitoneally, single shot, 48 h
# Protocol: (§3) HPLC purified. LNA GapmeRs were injected intraperitoneally at a dosage of 20 mg/kg bodyweight. 48 hours after injection, mice were sacrificed by isoflurane overdose and cardially perfused with PBS at a steady flow of 9 ml/min. Subsequently organs were removed and snap forzen for RNA and protein isolation.
# PDGFRβ [3] = test: Murine TYKRIL knockdown in vivo, PDGFRβ in organs; set-up: species or system mouse; conditions: mice, 20 mg/kg intraperitoneally, single shot, 48 h
# Protocol: as §3
# [4] = p53 gain of function by doxorubicin treatment
molecule,measurement,setting,value
Cc1ccc(NC(=O)c2ccc(CN3CCN(C)CC3)cc2)cc1Nc1nccc(-c2cccnc2)n1 [Imatinib],"cytotoxicity at 24 h, 1 μM",[1]; human pericytes (PC),~20%
same,cytotoxicity,[1]; human pericytes (PC) with TYKRIL silenced by LNA GapmeR,~45%
same,"PC viability (MTT), in words","human pericytes (PC); imatinib 1 μM, 24 h, compared with solvent PBS",significantly decreased PC viability
same,"PC viability (MTT), in words","human pericytes (PC); imatinib upon TYKRIL silencing, compared with scramble control transfected PC",significantly more reduced
"COc1cccc2c1C(=O)c1c(O)c3c(c(O)c1C2=O)C[C@@](O)(C(=O)CO)C[C@@H]3O[C@H]1C[C@H](N)[C@H](O)[C@H](C)O1 [doxorubicin, reference compound]",TYKRIL expression,TYKRIL; [4],loss of TYKRIL; also recorded: downregulation
same,PDGFRβ on RNA level,PDGFRβ [2]; [4],downregulation of PDGFRβ; also recorded: significant decline
same,PDGFRβ on protein level,PDGFRβ [2]; [4],downregulation of PDGFRβ; also recorded: significant decline
"LNA#1: LNA GapmeR against human TYKRIL, 5′-3′: AGAGGTGATTAAGGT (LNA gapmer: LNA flanks around DNA gap, pattern and linkages not given here)",TYKRIL expression levels in PC,TYKRIL,significant reduction of TYKRIL
same,Pericyte differentiation state by RNA Seq,human pericytes,de-differentiation of Pericytes
same,PDGFRβ mRNA (qPCR),PDGFRβ [2],loss of PDGFRβ
same,PDGFRβ protein levels (immunoblotting),PDGFRβ [2],loss of PDGFRβ
"LNA#3: LNA GapmeR against human TYKRIL, 5′-3′: AGTGAAGGACAGAGGC (LNA gapmer: LNA flanks around DNA gap, pattern and linkages not given here)",TYKRIL expression levels in PC,TYKRIL,significant reduction of TYKRIL
same,Pericyte differentiation state by RNA Seq,human pericytes,de-differentiation of Pericytes
same,PDGFRβ mRNA (qPCR),PDGFRβ [2],loss of PDGFRβ
same,PDGFRβ protein levels (immunoblotting),PDGFRβ [2],loss of PDGFRβ
"mLNA#4: murine TYKRIL LNA Gapmer, SEQ ID NO: 12, GTCTGCACTTAATTAA (LNA gapmer, pattern and linkages not given here; listed as Mus musculus)",mTYKRIL (qPCR) in heart,mTYKRIL,downregulation
same,mTYKRIL in kidneys,mTYKRIL; 20 mg/kg,decreased; also recorded: downregulation
same,mTYKRIL in liver,mTYKRIL; 20 mg/kg,decreased; also recorded: downregulation
same,mTYKRIL in lungs,mTYKRIL; 20 mg/kg,decreased; also recorded: downregulation
same,mTYKRIL in spleen,mTYKRIL; 20 mg/kg,decreased; also recorded: downregulation
same,PDGFRβ (qPCR) in heart,PDGFRβ [3],downregulation
same,PDGFRβ protein level in heart,PDGFRβ [3],PDGFRβ loss
same,PDGFRβ in kidneys,PDGFRβ [3]; 20 mg/kg,decreased; also recorded: downregulation
same,PDGFRβ in liver,PDGFRβ [3]; 20 mg/kg,decreased; also recorded: downregulation
same,PDGFRβ in lungs,PDGFRβ [3]; 20 mg/kg,decreased; also recorded: downregulation
same,PDGFRβ in spleen,PDGFRβ [3]; 20 mg/kg,decreased; also recorded: downregulation
